pIC50: −log10 of the molar value. A value given as a limit tells only on which side of the number the result lay.

26 molecules from patent US12281079B2, “Quinoline derivatives, processes for their preparation and uses thereof for the treatment of cancer” (Lead Discovery Center GmbH, priority 2019, dated 2025) can be followed below.

mitochondrial RNA polymerase (POLRMT), sequence (Q8BKF1 42-1207): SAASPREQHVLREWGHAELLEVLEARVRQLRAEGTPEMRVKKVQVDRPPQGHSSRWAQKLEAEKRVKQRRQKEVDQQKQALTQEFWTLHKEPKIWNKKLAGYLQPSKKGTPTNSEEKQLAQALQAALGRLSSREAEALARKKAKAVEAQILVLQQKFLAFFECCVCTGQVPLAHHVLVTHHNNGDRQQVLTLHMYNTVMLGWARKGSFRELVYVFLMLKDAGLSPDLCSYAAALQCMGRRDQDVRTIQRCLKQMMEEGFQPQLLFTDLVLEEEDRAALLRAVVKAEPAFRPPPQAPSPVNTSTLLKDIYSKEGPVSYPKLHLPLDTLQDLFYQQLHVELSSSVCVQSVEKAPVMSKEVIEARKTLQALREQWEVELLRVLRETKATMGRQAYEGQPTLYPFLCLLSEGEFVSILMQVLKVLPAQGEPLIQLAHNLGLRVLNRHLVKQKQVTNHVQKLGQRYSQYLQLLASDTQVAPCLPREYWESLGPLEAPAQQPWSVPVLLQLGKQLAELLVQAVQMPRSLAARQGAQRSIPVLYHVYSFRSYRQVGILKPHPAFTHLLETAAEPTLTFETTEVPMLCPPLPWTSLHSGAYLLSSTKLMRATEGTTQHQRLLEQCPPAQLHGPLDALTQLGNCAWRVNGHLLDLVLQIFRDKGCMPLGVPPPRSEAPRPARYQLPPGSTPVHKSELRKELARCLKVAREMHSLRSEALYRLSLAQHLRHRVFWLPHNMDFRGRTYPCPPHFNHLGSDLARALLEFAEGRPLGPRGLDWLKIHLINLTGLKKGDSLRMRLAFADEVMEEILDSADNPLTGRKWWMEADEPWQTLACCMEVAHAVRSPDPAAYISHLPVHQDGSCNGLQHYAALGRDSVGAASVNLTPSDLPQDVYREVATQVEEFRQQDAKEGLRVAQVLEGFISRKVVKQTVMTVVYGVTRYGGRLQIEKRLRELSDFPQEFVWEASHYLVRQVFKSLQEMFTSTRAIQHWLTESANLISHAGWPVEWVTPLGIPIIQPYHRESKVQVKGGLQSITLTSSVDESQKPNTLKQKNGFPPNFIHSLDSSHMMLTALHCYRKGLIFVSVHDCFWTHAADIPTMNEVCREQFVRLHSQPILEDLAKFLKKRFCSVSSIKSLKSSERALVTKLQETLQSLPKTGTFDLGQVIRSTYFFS

The assay concerns the target mitochondrial RNA polymerase (POLRMT) (Mus musculus, UniProt Q8BKF1). Put plainly: Homogeneous TR-FRET assay for mitochondrial transcription activity. The following applies: homogeneous TR-FRET assay according to Example 4. In kind it is biochemical. From the text: The TR-FRET assay was basically conducted as described in WO2016/193231A1, especially as described in example 1 (hereby incorporated by reference). With respect to the back ground of the mitochondrial transcription it is referred to Falkenberg et al. (2002) and Posse et al. (Posse et al., 2015). The method monitors the activity of mitochondrial RNA-polymerase via detection of the formation of its product, a 407 bp long RNA sequence. Detection of the product is facilitated by hybridization of two DNA-oligonucleotide probes to specific and adjacent sequences within the RNA product sequence. Upon annealing of the probes, two fluorophores that are coupled directly to an acceptor nucleotide probe (ATT0647, 5′) or introduced via a coupled streptavidin interacting with a biotinylated donor nucleotide probe on the other side (Europium cryptate, 3′) are brought into sufficient proximity to serve as a fluorescence-donor-acceptor pair as generally described in Walters and Namchuk (2003). Thus, a FRET signal at 665 nm is generated upon excitation at 340 nm.
Briefly, the protocol described here was applied for screening and activity determination in a low-volume 384-well microtiter plate with non-binding surface. For high-throughput application in the 1536-well microtiter plate format, volumes of the reagent mixes were adjusted, maintaining the volumetric ratio. Proteins POLRMT (NM_172551.3), TFAM (NM_009360.4) and TFB2M (NM_008249.4) were diluted from their stocks to working concentrations of 150 nM, 1.8 μM and 330 nM respectively, in a dilution buffer containing 100 mM Tris-HCl pH 8.0, 200 mM NaCl, 10% (v/v) glycerole, 2 mM glutathione (GSH), 0.5 mM EDTA and 0.1 mg/mL BSA. Protein dilutions and template DNA, comprising a pUC18 plasmid encoding the mitochondrial light strand promoter, restriction linearized proximal to the promoter 3′-end (pUC-LSP), were mixed at the twofold final assay-concentration in a reaction buffer, containing 10 mM Tris-HCl pH 7.5, 10 mM MgCl2, 40 mM NaCl, 2 mM GSH, 0.01% (w/v) Tween-20 and 0.1 mg/mL BSA.
5 μL of this mix were dispensed, depending on the chosen microtiter plate format, using multi-channel pipettes or a Multidrop® dispenser (Thermo Fisher Scientific, Waltham Mass.) into the wells of a microtiter plate and incubated at room temperature (rt) for 10 min. Chemical compounds under scrutiny in the assay were applied using contact-free acoustic droplet-dispensing (Echo520® Labcyte Inc., Sunnyvale Calif.) from 10 mM compound stocks in 100% DMSO, to a final concentration of 10 μM or in serial dilution series of the required concentration range. Equal amounts of DMSO without any compound were added to positive control samples, followed by an incubation step at rt for 10 min.
The enzymatic reaction was started by the addition of 5 μL of a mix of dNTPs in reaction buffer to a final concentration of 500 μM each. No nucleotide mix was added to negative control samples. The content of the wells was mixed using a VarioTeleshaker™ (Thermo Fisher Scientific, Waltham Mass.) at 1500 rpm for 45 sec after which the microtiter plate was centrifuged at 500×g for 1 min. The samples were incubated for 2 h at rt with humidity control to avoid evaporation. The detection reagents were prepared in a buffer that was composed, such that the enzymatic reaction was terminated due to chelating of Mg-ions and increased ionic strength, containing 50 mM Tris-HCl pH 7.5, 700 mM NaCl, 20 mM EDTA, and 0.01% (w/v) Tween-20. Importantly Eu-cryptate-coupled streptavidin had to be preincubated with a 100-fold molar excess of a random sequence oligonucleotide for 10 min at rt in the dark to block unspecific binding of single stranded RNA to the protein. Subsequently, the blocked streptavidin(-Eu) was mixed with the DNA-probes on ice and kept away from light until use. […]
(In general: In TR-FRET formats the signal depends on donor and acceptor labels being close together.)
For `CNC(=O)[C@H]1CCCN(C(=O)[C@@H](C)Oc2ccc3c(-c4ccccc4Cl)cc(Cl)nc3c2)C1` [Compound 96, (3S)-1-[(2R)-2-[[2-chloro-4-(2-chlorophenyl)-7-quinolyl]oxy]propanoyl]-N-methyl-piperidine-3-carboxamide], the pIC50 (in general, the negative decadic logarithm of the IC50, by convention in mol/L) was 5.00 to 6.00.

`COC(=O)C1CC(NC(=O)[C@@H](C)Oc2ccc3c(-c4ccccc4Cl)cc(Cl)nc3c2)C1` (stereo partly drawn) [Compound 97, methyl 3-[[(2R)-2-[[2-chloro-4-(2-chlorophenyl)-7-quinolyl]oxy]propanoyl]amino]cyclobutanecarboxylate] gave a pIC50 of 5.00 to 6.00. The same measure for `CNC(=O)C[C@H]1CCCN(C(=O)[C@@H](C)Oc2ccc3c(-c4ccc(F)cc4Cl)cc(Cl)nc3c2)C1` [Compound 98, 2-((R)-1-((R)-2-((2-chlor-4-(2-chloro-4-fluorophenyl)quinolin-7-yl)oxy)propanoyl)piperidin-3-yl)-N-methylacetamide]: 5.00 to 6.00; for `C[C@@H](Oc1ccc2c(-c3ccccc3Cl)cc(Cl)nc2c1)C(=O)N1CCC[C@H](C(=O)N(C)C)C1` [Compound 100, (3S)-1-[(2R)-2-[[2-chloro-4-(2-chlorophenyl)-7-quinolyl]oxy]propanoyl]-N,N-dimethyl-piperidine-3-carboxamide]: 5.00 to 6.00.

`C[C@H](Oc1ccc2c(-c3ccccc3Cl)ccnc2c1)C(=O)N1CCC[C@@H](C(=O)O)C1` [Compound 102, (3R)-1-[(2S)-2-[[4-(2-chlorophenyl)-7-quinolyl]oxy]propanoyl]piperidine-3-carboxylic acid]: the negative-log IC50 (pIC50) is 5.00 to 6.00. The same measure for `C[C@@H](Oc1ccc2c(-c3ccccc3Cl)ccnc2c1)C(=O)O` [Compound 103, (2R)-2-[[4-(2-chlorophenyl)-7-quinolyl]oxy]propanoic acid]: 5.00 to 6.00; for `CNC(=O)[C@H]1CCCN(C(=O)[C@@H](C)Oc2ccc3c(-c4ccc(F)cc4Cl)cc(Cl)nc3c2)C1` [Compound 105, (3S)-N-methyl-1-[(2R)-2-[[2-chloro-4-(2-chloro-4-fluoro-phenyl)-7-quinolyl]oxy]propanoyl]piperidine-3-carboxamide]: 5.00 to 6.00; for `Cc1ccccc1-c1ccnc2cc(OCC(N)=O)ccc12` [Compound 106, 2-((4-(o-tolyl)quinolin-7-yl)oxy)acetamide]: 5.00 to 6.00. As for `C[C@@H](Oc1ccc2c(-c3ccc(F)cc3Cl)cc(Cl)nc2c1)C(=O)N1CCCCC1` [Compound 107, (2R)-2-[[2-chloro-4-(2-chloro-4-fluoro-phenyl)-7-quinolyl]oxy]-1-(1-piperidyl)propan-1-one], the figure is 5.00 to 6.00; as for `CCOC(=O)c1cccc(NC(=O)[C@@H](C)Oc2ccc3c(-c4ccc(F)cc4Cl)ccnc3c2)c1` [Compound 108, ethyl 3-[[(2 R)-2-[[4-(2-chloro-4-fluoro-phenyl)-7-quinolyl]oxy]propanoyl]amino]benzoate], 5.00 to 6.00. In the case of `C[C@@H](Oc1ccc2c(-c3ccccc3F)ccnc2c1)C(=O)N1CCC[C@H](CC(=O)O)C1` [Compound 110, 2-[(3R)-1-[(2R)-2-[[4-(2-fluorophenyl)-7-quinolyl]oxy]propanoyl]-3-piperidyl]acetic acid], the pIC50 was 5.00 to 6.00. As for `Cc1cc(-c2ccccc2C)c2ccc(O[C@H](C)C(=O)N3CCC[C@H](C(=O)OC(C)(C)C)C3)cc2n1` [Compound 111], the figure is 5.00 to 6.00.

Molecule `CC(C)c1ccccc1-c1ccnc2cc(O[C@H](C)C(=O)N3CCC[C@H](CC(=O)O)C3)ccc12` [Compound 122, 2-[(3R)-1-[(2R)-2-[[4-(2-isopropylphenyl)-7-quinolyl]oxy]propanoyl]-3-piperidyl]acetic acid] showed a pIC50 of 5.00 to 6.00. The same measure for `C[C@@H](Oc1ccc2c(-c3ccc(F)cc3Cl)ccnc2c1)C(=O)Nc1ccc(CCO)cc1` [Compound 125, (2R)-2-[[4-(2-chloro-4-fluoro-phenyl)-7-quinolyl]oxy]-N-[4-(2-hydroxyethyl)phenyl]propanamide]: 5.00 to 6.00.

Regarding `C[C@H](Oc1ccc2c(-c3ccc(F)cc3Cl)ccnc2n1)C(=O)N1CCC[C@H](C(=O)O)C1` [Compound 127, (3S)-1-[(2S)-2-[[5-(2-chloro-4-fluoro-phenyl)-1,8-naphthyridin-2-yl]oxy]propanoyl]piperidine-3-carboxylic acid], the pIC50 was 5.00 to 6.00. As for `Cc1ccsc1-c1ccnc2cc(O[C@H](C)C(=O)N3CCC[C@H](CC(=O)O)C3)ccc12` [Compound 134, 2-[(3R)-1-[(2R)-2-[[4-(3-methyl-2-thienyl)-7-quinolyl]oxy]propanoyl]-3-piperidyl]acetic acid], the figure is 5.00 to 6.00; as for `COc1ccccc1-c1ccnc2cc(O[C@H](C)C(=O)N3CCC[C@H](CC(=O)O)C3)ccc12` [Compound 135, 2-[(3R)-1-[(2R)-2-[[4-(2-methoxyphenyl)-7-quinolyl]oxy]propanoyl]-3-piperidyl]acetic acid], 5.00 to 6.00.

The molecule `C[C@@H](Oc1ccc2c(-c3ccccc3C(F)(F)F)ccnc2c1)C(=O)N1CCC[C@H](CC(=O)O)C1` [Compound 136, 2-[(3R)-1-[(2R)-2-[[4-[2-(trifluoromethyl)phenyl]-7-quinolyl]oxy]propanoyl]-3-piperidyl]acetic acid] gave a pIC50 of 6.00 to 7.00. As for `C[C@@H](Oc1ccc2c(-c3ccccc3OC(F)(F)F)ccnc2c1)C(=O)N1CCC[C@H](CC(=O)O)C1` [Compound 137, 2-[(3R)-1-[(2R)-2-[[4-[2-(trifluoromethoxy)phenyl]-7-quinolyl]oxy]propanoyl]-3-piperidyl]acetic acid], the figure is 5.00 to 6.00; as for `Cc1cccc(C)c1-c1ccnc2cc(O[C@H](C)C(=O)N3CCC[C@H](S(N)(=O)=O)C3)ccc12` [Compound 138, (3S)-1-[(2R)-2-[[4-(2,6-dimethylphenyl)-7-quinolyl]oxy]propanoyl]piperidine-3-sulfonamide], > 7.70; as for `CC(C)(Oc1ccc2c(-c3ccccc3Cl)ccnc2c1)C(=O)N1CCC[C@H](CC(=O)O)C1` [Compound 139, 2-[(3R)-1-[2-[[4-(2-chlorophenyl)-7-quinolyl]oxy]-2-methyl-propanoyl]-3-piperidyl]acetic acid], 5.00 to 6.00.

Turning to `Cc1cccc(Cl)c1-c1ccnc2cc(O[C@H](C)C(=O)N3CCC[C@H](CC(=O)O)C3)ccc12` [Compound 141, 2-[(3R)-1-[(2R)-2-[[4-(2-chloro-6-methyl-phenyl)-7-quinolyl]oxy]propanoyl]-3-piperidyl]acetic acid], the pIC50 was > 7.70.

Consider `C[C@@H](Oc1ccc2c(-c3ccccc3Br)ccnc2c1)C(=O)N1CCC[C@H](CC(=O)O)C1` [Compound 142, 2-[(3R)-1-[(2R)-2-[[4-(2-bromophenyl)-7-quinolyl]oxy]propanoyl]-3-piperidyl]acetic acid], for which the pIC50 was > 7.70.

With `C[C@@H](Oc1ccc2c(-c3ccccc3C#N)ccnc2c1)C(=O)N1CCC[C@H](CC(=O)O)C1` [Compound 143, 2-[(3R)-1-[(2R)-2-[[4-(2-cyanophenyl)-7-quinolyl]oxy]propanoyl]-3-piperidyl]acetic acid], the pIC50 is 6.00 to 7.00. `C#Cc1ccccc1-c1ccnc2cc(O[C@H](C)C(=O)N3CCC[C@H](CC(=O)O)C3)ccc12` [Compound 144, 2-[(3R)-1-[(2R)-2-[[4-(2-ethynylphenyl)-7-quinolyl]oxy]propanoyl]-3-piperidyl]acetic acid] showed a pIC50 of 7.00 to 7.70. As for `C[C@@H](Oc1ccc2c(-c3ccccc3N(C)C)ccnc2c1)C(=O)N1CCC[C@H](CC(=O)O)C1` [Compound 145, 2-[(3R)-1-[(2R)-2-[[4-[2-(dimethylamino)phenyl]-7-quinolyl]oxy]propanoyl]-3-piperidyl]acetic acid], the figure is 6.00 to 7.00.
